From patent publication US12448388B2, “PRMT5 inhibitors and uses thereof” (Gilead Sciences, Inc., priority 2023, dated 2025)
Read-outs that look alike come from different tables or passages of the source.

System: HCT116 MTAP-deleted cell lines
Assay: Cell viability assay (CellTiter-Glo, 7 days), HCT116 MTAP-deleted
Format: cell-based
Conditions: Homo sapiens, HCT-116, HCT116 MTAP-deleted, class symbols, read-out: CC50
In short: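 Dose-response, PRMT5 inhibitors from DMSO serial dilution, pre-spotted; cells seeded onto compound plates. 7 d, 37 °C/5% CO2/90% RH. Readout: CTG luminescence → CC50.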

SMILES | CC50 (cell viability assay) [nM] | CC50 (cell viability) [nM]
Cc1ncn2c1c(N)nc1cnc(C(=O)N(C)C3CCc4cc(C(F)(F)F)ccc43)cc12 (stereo not drawn) [Ff-435, 7-amino-N,5-dimethyl-N-[5-(trifluoromethyl)indan-1-yl]-2,4,8,11-tetrazatricyclo[7.4.0.02,6]trideca-1(13),3,5,7,9,11-hexaene-12-carboxamide] | 100 to 1000 | 
CN(C(=O)c1cc2c(cc1F)nc(N)c1cncn12)[C@@H]1COc2cc(C3CC3(C)C)ccc21 (stereo partly drawn) [Ff-475, 4-amino-N-((3S)-6-(2,2-dimethylcyclopropyl)-2,3-dihydrobenzofuran-3-yl)-7-fluoro-N-methylimidazo[1,5-a]quinoxaline-8-carboxamide] | < 100 | 
Nc1nc2cc(F)c(C(=O)N3C[C@H](F)CC[C@H]3c3ccc(C(F)(F)F)cn3)cc2n2cncc12 (single isomer, unassigned) [Ff-245] |  | 100 to 1000
Nc1nc2cc(F)c(C(=O)N(Cc3ccc(-c4cnn(C(F)F)c4)cn3)C34CC(C3)C4)cc2n2cncc12 [Ff-212, 4-amino-N-(bicyclo[1.1.1]pentan-1-yl)-N-((5-(1-(difluoromethyl)-1H-pyrazol-4-yl)pyridin-2-yl)methyl)-7-fluoroimidazo[1,5-a]quinoxaline-8-carboxamide] |  | < 100
CC(=O)N1CCN(C(=O)c2cc3c(cc2F)nc(N)c2cncn23)C(c2ccc(C(F)(F)F)cn2)C1 (stereo not drawn) [Ff-134, 1-(4-(4-amino-7-fluoroimidazo[1,5-a]quinoxaline-8-carbonyl)-3-(5-(trifluoromethyl)pyridin-2-yl)piperazin-1-yl)ethan-1-one] |  | 100 to 1000
C[C@H]1OC[C@@H](N(C)C(=O)c2ccc3nc(N)c4cncn4c3c2)c2ccc(C(F)(F)F)cc21 (single isomer, unassigned) [Ff-471] | < 100 | 
C[C@@H]1C[C@@H]2Oc3cc(C(F)(F)F)ncc3[C@@H]2N(C(=O)c2cc3c(cc2F)nc(N)c2cncn23)C1 [Fg-20, (4-amino-7-fluoroimidazo[1,5-a]quinoxalin-8-yl)((3R,4aS,9bS)-3-methyl-7-(trifluoromethyl)-3,4,4a,9b-tetrahydrofuro[3,2-b:4,5-c′]dipyridin-1(2H)-yl)methanone] | < 100 | 
C[C@@H]1C[C@@H](N(C)C(=O)c2cc3c(cc2F)nc(N)c2cncn23)c2ccc(C(F)(F)F)cc21 [Ff-671, 4-amino-7-fluoro-N-methyl-N-((1R,3R)-3-methyl-5-(trifluoromethyl)-2,3-dihydro-1H-inden-1-yl)imidazo[1,5-a]quinoxaline-8-carboxamide] | < 100 | 
Nc1nc2cc(F)c(C(=O)N3CCC[C@@H]4Oc5cc(C(F)(F)F)c(F)cc5[C@@H]43)cc2n2cncc12 [Ff-105, (4-amino-7-fluoroimidazo[1,5-a]quinoxalin-8-yl)((4aS,9bS)-8-fluoro-7-(trifluoromethyl)-3,4,4a,9b-tetrahydrobenzofuro[3,2-b]pyridin-1(2H)-yl)methanone] |  | < 100
CN(C(=O)c1cc2c(cn1)nc(N)c1cncn12)[C@@H]1COc2cc(C(F)(F)F)ccc21 [Ff-342, (S)-4-amino-N-methyl-N-(6-(trifluoromethyl)-2,3-dihydrobenzofuran-3-yl)imidazo[1,5-a]pyrido[3,4-e]pyrazine-8-carboxamide] |  | < 100
C[C@H]1C[C@@H](N(C)C(=O)c2cc3c(cc2F)nc(N)c2cncn23)c2ccc(C(F)(F)F)cc21 [Ff-654, 4-amino-7-fluoro-N-methyl-N-((1R,3S)-3-methyl-5-(trifluoromethyl)-2,3-dihydro-1H-inden-1-yl)imidazo[1,5-a]quinoxaline-8-carboxamide] | < 100 | 
C[C@@H]1C[C@@H]2Cc3nc(C(F)(F)F)ccc3[C@@H]2N(C(=O)c2cc3c(cc2F)nc(N)c2cncn23)C1 (single isomer, unassigned) [Ff-393] | < 100 | 
Nc1nc2cnc(C(=O)N3CC4(CCC4)C[C@@H]4Oc5cc(C(F)(F)F)ccc5[C@@H]43)cc2n2cncc12 (racemic) [Ff-688, Rac-(4-aminoimidazo[1,5-a]pyrido[3,4-e]pyrazin-8-yl)((4aS,9bS)-7-(trifluoromethyl)-4a,9b-dihydro-2H-spiro[benzofuro[3,2-b]pyridine-3,1′-cyclobutan]-1(4H)-yl)methanone] | < 100 | 
Nc1nc2ccc(C(=O)N3CCC[C@@H]4Oc5cc(OC(F)(F)F)c(F)cc5[C@@H]43)cc2n2cncc12 [Ff-377, (4-aminoimidazo[1,5-a]quinoxalin-8-yl)((4aS,9bS)-8-fluoro-7-(trifluoromethoxy)-3,4,4a,9b-tetrahydrobenzofuro[3,2-b]pyridin-1(2H)-yl)methanone] | < 100 | 
CC1COC2Cc3cc(C(F)(F)F)ccc3C2N1C(=O)c1cc2c(cc1F)nc(N)c1cncn12 (racemic) [Ff-85, (4-amino-7-fluoroimidazo[1,5-a]quinoxalin-8-yl)(3-methyl-7-(trifluoromethyl)-2,3,9,9a-tetrahydroindeno[2,1-b][1,4]oxazin-4(4aH)-yl)methanone] |  | < 100
CN(C(=O)c1cc2c(cc1F)nc(N)c1cncn12)[C@@H]1COc2cc(-c3ccc(C(F)(F)F)cn3)ccc21 [Ff-238, (S)-4-amino-7-fluoro-N-methyl-N-(6-(5-(trifluoromethyl)pyridin-2-yl)-2,3-dihydrobenzofuran-3-yl)imidazo[1,5-a]quinoxaline-8-carboxamide] |  | < 100
Nc1nc2cc(Cl)c(C(=O)N3CC[C@H]4C[C@@H]3c3ccc(C(F)(F)F)nc3O4)cc2n2cncc12 [Ff-371, (4-amino-7-chloroimidazo[1,5-a]quinoxalin-8-yl)((2S,6R)-9-(trifluoromethyl)-3,4-dihydro-2H-2,6-methanopyrido[2,3-b][1,5]oxazocin-5(6H)-yl)methanone] | < 100 | 
Cc1ncc2c(N)nc3cnc(C(=O)N4CCC[C@@H]5Oc6cc(C(F)(F)F)c(F)cc6[C@@H]54)cc3n12 [Ff-108, (4-amino-1-methylimidazo[1,5-a]pyrido[3,4-e]pyrazin-8-yl)((4aS,9bS)-8-fluoro-7-(trifluoromethyl)-3,4,4a,9b-tetrahydrobenzofuro[3,2-b]pyridin-1(2H)-yl)methanone] |  | < 100
CN(C(=O)c1cc2c(cc1F)nc(N)c1cncn12)[C@@H](c1ccc(C(F)(F)F)cc1)C(F)F [Fb-9, (S)-4-amino-N-(2,2-difluoro-1-(4-(trifluoromethyl)phenyl)ethyl)-7-fluoro-N-methylimidazo[1,5-a]quinoxaline-8-carboxamide] |  | < 100
C[C@@H]1CCN(C(=O)c2cc3c(cc2F)nc(N)c2cncn23)C(c2ccc(C(F)(F)F)cn2)C1 (stereo partly drawn) [Ff-224, (4-amino-7-fluoroimidazo[1,5-a]quinoxalin-8-yl)((4R)-4-methyl-2-(5-(trifluoromethyl)pyridin-2-yl)piperidin-1-yl)methanone] |  | 100 to 1000
CN(C(=O)c1cc2c(cc1F)nc(N)c1cncn12)C1COc2cc(Br)c(F)cc21 (stereo not drawn) [Ff-560, 4-amino-N-(6-bromo-5-fluoro-2,3-dihydrobenzofuran-3-yl)-7-fluoro-N-methylimidazo[1,5-a]quinoxaline-8-carboxamide] | < 100 | 
CN(C(=O)c1cc2c(cn1)nc(N)c1cncn12)[C@@H]1COc2cc(C34CC(C(F)F)(C3)C4)ccc21 [Ff-451, (S)-4-amino-N-(6-(3-(difluoromethyl)bicyclo[1.1.1]pentan-1-yl)-2,3-dihydrobenzofuran-3-yl)-N-methylimidazo[1,5-a]pyrido[3,4-e]pyrazine-8-carboxamide] | < 100 | 
CN(C(=O)c1cc2c(cn1)nc(N)c1cncn12)[C@@H]1COc2cc(C34CC(C(F)(F)F)(C3)C4)ccc21 [Ff-642, (S)-4-amino-N-methyl-N-(6-(3-(trifluoromethyl)bicyclo[1.1.1]pentan-1-yl)-2,3-dihydrobenzofuran-3-yl)imidazo[1,5-a]pyrido[3,4-e]pyrazine-8-carboxamide] | 100 to 1000 | 
CN(Cc1ccc(-c2cnn(C(F)(F)F)c2)cc1Cl)C(=O)c1cc2c(cc1F)nc(N)c1cncn12 [Ff-552, 4-amino-N-(2-chloro-4-(1-(trifluoromethyl)-1H-pyrazol-4-yl)benzyl)-7-fluoro-N-methylimidazo[1,5-a]quinoxaline-8-carboxamide] | 100 to 1000 | 
Nc1nc2cc(F)c(C(=O)N3CCC[C@@H]4Oc5c(ccc(Cl)c5F)[C@@H]43)cc2n2cncc12 (racemic) [Ff-335, Rac-((4-amino-7-fluoroimidazo[1,5-a]quinoxalin-8-yl)((4aS,9bS)-7-chloro-6-fluoro-3,4,4a,9b-tetrahydrobenzofuro[3,2-b]pyridin-1(2H)-yl)methanone] |  | < 100
CN(C(=O)c1cc2c(cc1F)nc(N)c1cncn12)[C@@H]1COc2cc(C#CC3(CC#N)CC3)ccc21 [Ff-441, 4-amino-N-[(3S)-6-[2-[1-(cyanomethyl)cyclopropyl]ethynyl]-2,3-dihydrobenzofuran-3-yl]-7-fluoro-N-methyl-imidazo[1,5-a]quinoxaline-8-carboxamide] | < 100 | 
CC(=O)N(C)N(Cc1ccn(-c2ccc(F)cc2F)n1)C(=O)c1cc2c(cc1F)nc(N)c1cncn12 [Fb-16, N′-acetyl-4-amino-N-((1-(2,4-difluorophenyl)-1H-pyrazol-3-yl)methyl)-7-fluoro-N′-methylimidazo[1,5-a]quinoxaline-8-carbohydrazide] |  | 100 to 1000
CN(C(=O)c1cc2c(cc1F)nc(N)c1cncn12)[C@@H]1COc2cc(C#CC34CCC(CC3)OC4)ccc21 [Ff-523, (S)—N-(6-((2-oxabicyclo[2.2.2]octan-4-yl)ethynyl)-2,3-dihydrobenzofuran-3-yl)-4-amino-7-fluoro-N-methylimidazo[1,5-a]quinoxaline-8-carboxamide] | 100 to 1000 | 
CN(C(=O)c1ccc2nc(N)c3cncn3c2c1)[C@@H]1COc2cc(F)ccc21 [Ff-569, (S)-4-amino-N-(6-fluoro-2,3-dihydrobenzofuran-3-yl)-N-methylimidazo[1,5-a]quinoxaline-8-carboxamide] | 100 to 1000 | 
Nc1nc2ccc(C(=O)N(Cc3ccc(-n4ccnc4)cc3Cl)C34CC(C3)C4)cc2n2cncc12 [Ff-63, 4-amino-N-(bicyclo[1.1.1]pentan-1-yl)-N-(2-chloro-4-(1H-imidazol-1-yl)benzyl)imidazo[1,5-a]quinoxaline-8-carboxamide] |  | 100 to 1000
